Data published in US12448389B2, “BRM targeting compounds and associated methods of use” (Prelude Therapeutics Incorporated, priority 2020, dated 2025).

Columns and labels:
[1] = biological target: T1, SMARCA2-HiBiT (Homo sapiens, UniProt P51531); assay: SMARCA2 HiBiT degradation assay in HeLa cells; format: cell-based; conditions: 18 hours incubation; for DC50: read-out: HeLa_HiBit-SM2 DC50; for Dmax: HeLa, read-out: HeLa-HiBit-SM2 Dmax (%)
T1 construct: SMARCA2-HiBiT knock-in Hela monoclonal cell (CS302366); host or cells: HeLa monoclonal knock-in line (CRISPR HiBiT knock-in at the endogenous locus, heterozygous)
T1 sequence (P51531 whole entry): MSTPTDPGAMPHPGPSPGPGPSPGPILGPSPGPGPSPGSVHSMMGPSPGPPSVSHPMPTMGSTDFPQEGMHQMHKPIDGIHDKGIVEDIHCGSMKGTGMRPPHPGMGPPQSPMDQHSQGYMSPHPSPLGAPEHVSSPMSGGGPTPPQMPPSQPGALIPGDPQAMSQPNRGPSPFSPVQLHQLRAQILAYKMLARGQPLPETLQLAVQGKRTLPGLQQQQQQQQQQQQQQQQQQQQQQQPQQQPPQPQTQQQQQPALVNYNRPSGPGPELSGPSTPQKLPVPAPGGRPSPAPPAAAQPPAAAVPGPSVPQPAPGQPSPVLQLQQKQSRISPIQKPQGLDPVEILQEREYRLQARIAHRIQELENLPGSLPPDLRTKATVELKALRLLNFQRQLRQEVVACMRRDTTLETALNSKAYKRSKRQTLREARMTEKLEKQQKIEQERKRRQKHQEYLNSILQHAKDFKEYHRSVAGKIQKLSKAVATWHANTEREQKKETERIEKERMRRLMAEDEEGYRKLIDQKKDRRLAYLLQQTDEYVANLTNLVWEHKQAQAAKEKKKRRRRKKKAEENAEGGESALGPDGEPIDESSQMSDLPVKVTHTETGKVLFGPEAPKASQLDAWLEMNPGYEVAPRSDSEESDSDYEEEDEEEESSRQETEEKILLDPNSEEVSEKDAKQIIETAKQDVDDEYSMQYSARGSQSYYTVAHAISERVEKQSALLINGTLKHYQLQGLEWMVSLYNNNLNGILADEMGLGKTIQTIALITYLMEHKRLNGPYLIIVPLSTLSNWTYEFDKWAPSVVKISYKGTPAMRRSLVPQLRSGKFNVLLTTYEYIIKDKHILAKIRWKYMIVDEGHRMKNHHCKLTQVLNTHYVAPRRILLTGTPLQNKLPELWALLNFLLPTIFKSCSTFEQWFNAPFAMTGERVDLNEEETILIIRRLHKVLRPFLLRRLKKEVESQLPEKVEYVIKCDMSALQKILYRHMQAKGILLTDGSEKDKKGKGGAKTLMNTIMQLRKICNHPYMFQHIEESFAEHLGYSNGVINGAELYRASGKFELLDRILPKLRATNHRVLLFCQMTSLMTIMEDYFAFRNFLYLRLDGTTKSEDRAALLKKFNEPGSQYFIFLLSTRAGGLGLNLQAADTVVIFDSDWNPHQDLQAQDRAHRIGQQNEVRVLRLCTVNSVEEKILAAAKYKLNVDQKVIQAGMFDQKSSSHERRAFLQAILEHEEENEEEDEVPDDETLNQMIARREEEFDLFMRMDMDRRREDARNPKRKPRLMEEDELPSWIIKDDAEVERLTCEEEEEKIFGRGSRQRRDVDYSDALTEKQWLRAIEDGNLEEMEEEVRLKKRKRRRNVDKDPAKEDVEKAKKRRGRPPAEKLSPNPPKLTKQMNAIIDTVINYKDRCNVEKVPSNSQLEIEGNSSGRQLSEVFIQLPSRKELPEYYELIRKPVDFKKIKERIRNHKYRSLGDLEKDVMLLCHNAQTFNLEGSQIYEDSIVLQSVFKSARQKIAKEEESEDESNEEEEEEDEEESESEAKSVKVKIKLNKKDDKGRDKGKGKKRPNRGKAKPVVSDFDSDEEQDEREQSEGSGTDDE
Experimental: (§1) HiBiT peptide knock-in of SMARCA2 in LgBiT expressing HEK293T cells was performed by CRISPR-mediated tagging system as described Promega. The homozygous HiBiT knock-in on c-terminus SMARCA2 was confirmed by sanger sequence. SMARCA2-HiBiT knock-in Hela monoclonal cell (CS302366) and SMARCA4-HiBiT knock-in Hela monoclonal cell (CS3023226) were purchased from Promega. The heterozygous HiBiT-knock-in was confirmed by sanger sequence in both SMARCA2-HiBiT and SMARCA4-HiBiT monoclonal cells.
(§2) SMARCA2 HiBiT and SMARCA4 HiBiT Degradation Assay in HeLa Cells
(§3) Dispense 10 ul aliquot of prepared Hela-SMARCA2-HiBiT or Hela-SMARCA4-HiBiT cells (1:1 ratio of cells:Trypan Blue (#1450013, Bio-Rad)) onto cell counting slide (#145-0011, Bio-Rad) and obtain cell density and cell viability using cell counter (TC20, Bio-Rad). Remove appropriate volume of resuspended cells from culture flask to accommodate 2500 cells/well @20 μL/well. Transfer Hela-HiBiT cells to 50 mL conical (#430290, Corning). Spin down at 1000 rpm for 5 min using tabletop centrifuge (SPINCHRON 15, Beckman). Discard supernatant and resuspend cell pellet in modified EMEM (#30-2003, ATCC) cell culture media containing 10% FBS (F2422-500ML, Sigma), and 1×Penicillin/Streptomycin (200 g/L) (30-002-CI, Corning) to a cell density of 125,000 cells/mL. Dispense 20 μL of resuspended Hela-HiBit cells per well in 384-well TC treated plate (#12-565-343, Thermo Scientific) using standard cassette (#50950372, Thermo Scientific) on Multidrop Combi (#5840310, Thermo Scientific) inside laminar flow cabinet. Dispense test compounds onto plates using digital liquid dispenser (D300E, Tecan). Incubate plates in humidified tissue culture incubator @37° C. for 18 hours. Add 20 μL of prepared Nano-Glo® HiBiT Lytic detection buffer (N3050, Promega) to each well of 384-well plate using small tube cassette (#24073295, Thermo Scientific) on Multidrop Combi, incubate @RT for 30-60 min. Read plates on microplate reader (Envision 2105, PerkinElmer) using 384 well Ultra-Sensitive luminescence mode. Raw data files and compound information reports are swept into centralized data lake and deconvoluted using automated scripts designed by TetraScience, Inc. Data analysis, curve-fitting and reporting done in Dotmatics Informatics Suite using Screening Ultra module.

[2] = biological target: T2, SMARCA4-HiBiT (Homo sapiens, UniProt P51532); assay: SMARCA4 HiBiT degradation assay in HeLa cells; format: cell-based; conditions: 18 hours incubation; for DC50: read-out: HeLa-HiBit-SM4 DC50; for Dmax: HeLa, read-out: HeLa-HiBit-SM4 Dmax (%)
T2 construct: SMARCA4-HiBiT knock-in Hela monoclonal cell (CS3023226); host or cells: HeLa monoclonal knock-in line (CRISPR HiBiT knock-in at the endogenous locus, heterozygous)
T2 sequence (P51532 whole entry): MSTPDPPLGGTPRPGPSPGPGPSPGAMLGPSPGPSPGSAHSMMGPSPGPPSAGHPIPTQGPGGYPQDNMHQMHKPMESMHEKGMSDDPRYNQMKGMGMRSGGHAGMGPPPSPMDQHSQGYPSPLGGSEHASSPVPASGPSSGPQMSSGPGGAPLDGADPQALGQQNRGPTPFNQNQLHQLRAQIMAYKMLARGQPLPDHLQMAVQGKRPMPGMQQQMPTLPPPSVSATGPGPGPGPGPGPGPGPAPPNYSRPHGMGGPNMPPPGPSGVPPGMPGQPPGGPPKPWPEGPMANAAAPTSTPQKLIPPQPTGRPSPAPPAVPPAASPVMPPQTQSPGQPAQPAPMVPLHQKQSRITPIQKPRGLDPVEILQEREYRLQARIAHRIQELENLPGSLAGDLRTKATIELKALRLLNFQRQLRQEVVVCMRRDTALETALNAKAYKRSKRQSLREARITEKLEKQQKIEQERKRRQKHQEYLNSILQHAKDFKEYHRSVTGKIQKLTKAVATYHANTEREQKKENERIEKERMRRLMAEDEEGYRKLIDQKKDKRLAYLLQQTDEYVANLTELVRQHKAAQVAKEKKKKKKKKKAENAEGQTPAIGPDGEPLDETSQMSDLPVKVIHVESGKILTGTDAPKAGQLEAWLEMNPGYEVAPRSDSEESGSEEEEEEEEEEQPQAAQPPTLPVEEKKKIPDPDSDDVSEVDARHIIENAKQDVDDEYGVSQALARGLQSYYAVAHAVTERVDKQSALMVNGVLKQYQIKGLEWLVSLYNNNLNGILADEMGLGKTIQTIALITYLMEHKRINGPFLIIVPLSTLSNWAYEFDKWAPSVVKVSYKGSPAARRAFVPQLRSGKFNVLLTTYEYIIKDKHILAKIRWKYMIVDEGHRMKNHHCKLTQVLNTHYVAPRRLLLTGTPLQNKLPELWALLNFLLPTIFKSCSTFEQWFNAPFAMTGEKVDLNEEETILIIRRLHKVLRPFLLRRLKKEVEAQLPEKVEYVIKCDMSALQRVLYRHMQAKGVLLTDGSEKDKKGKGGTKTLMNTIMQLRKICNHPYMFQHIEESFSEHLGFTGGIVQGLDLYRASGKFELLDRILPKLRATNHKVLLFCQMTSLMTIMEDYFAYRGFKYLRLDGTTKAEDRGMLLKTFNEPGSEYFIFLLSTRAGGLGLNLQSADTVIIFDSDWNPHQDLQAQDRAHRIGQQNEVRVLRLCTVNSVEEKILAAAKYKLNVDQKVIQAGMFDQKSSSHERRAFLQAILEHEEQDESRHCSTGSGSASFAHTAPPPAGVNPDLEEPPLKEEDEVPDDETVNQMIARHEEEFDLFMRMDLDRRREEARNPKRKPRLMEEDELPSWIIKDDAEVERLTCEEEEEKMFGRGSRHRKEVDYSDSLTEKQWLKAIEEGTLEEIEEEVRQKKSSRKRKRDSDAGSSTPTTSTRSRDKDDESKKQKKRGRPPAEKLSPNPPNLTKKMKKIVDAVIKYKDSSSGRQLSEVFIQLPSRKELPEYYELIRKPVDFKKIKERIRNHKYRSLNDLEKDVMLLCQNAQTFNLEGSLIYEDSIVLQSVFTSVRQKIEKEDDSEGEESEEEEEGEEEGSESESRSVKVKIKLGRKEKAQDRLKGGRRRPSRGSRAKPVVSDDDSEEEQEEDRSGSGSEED
Experimental: as §1, §2, §3

| Compound | DC50 [1] [µM] | Dmax [1] [%] | DC50 [2] [µM] | Dmax [2] [%] |
| --- | --- | --- | --- | --- |
| O=C1CCC(N2Cc3cc(OCCN4CCC(N5CCN6c7cc(-c8ccccc8O)nnc7NC[C@H]6C5)C4)ccc3C2=O)C(=O)N1 (stereo partly drawn) [Example 256, 3-(5-(2-(3-((S)-2-(2-hydroxyphenyl)-5,6,6a,7,9,10-hexahydro-8H-pyrazino[1′,2′:4,5]pyrazino[2,3-c]pyridazin-8-yl)pyrrolidin-1-yl)ethoxy)-1-oxoisoindolin-2-yl)piperidine-2,6-dione] | 0.01 to 0.1 | 50 to 75 | 0.01 to 0.1 | 50 to 75 |
| O=C1CCC(N2C(=O)c3ccc(N4C[C@@H]5CN(C6CCC(C(=O)N7CCN8c9cc(-c%10ccccc%10O)nnc9NC[C@H]8C7)CC6)C[C@H]5C4)cc3C2=O)C(=O)N1 (stereo partly drawn) [Example 98, 2-(2,6-dioxopiperidin-3-yl)-5-((3aS,6aS)-5-(4-((S)-2-(2-hydroxyphenyl)-6,6a,7,8,9,10-hexahydro-5H-pyrazino[1′,2′:4,5]pyrazino[2,3-c]pyridazine-8-carbonyl)cyclohexyl)hexahydropyrrolo[3,4-c]pyrrol-2(1H)-yl) isoindoline-1,3-dione] | < 0.01 | 75 to 85 | < 0.01 | > 85 |
| O=C1CCC(N2C(=O)c3ccc(N4CCC(CN5CCN(C(=O)N6CCN7c8cc(-c9ccccc9O)nnc8NC[C@H]7C6)CC5)C(F)(F)C4)cc3C2=O)C(=O)N1 (stereo partly drawn) [Example 195, 5-[3,3-difluoro-4-[[4-[(10S)-4-(2-hydroxyphenyl)-1,5,6,8,12-pentazatricyclo[8.4.0.02,7]tetradeca-2(7),3,5-trien-12-carbonyl]piperazin-1-yl]methyl]piperidin-1-yl]-2-(2,6-dioxopiperidin-3-yl) isoindole-1,3-dione] | < 0.01 | 50 to 75 | 0.01 to 0.1 | 50 to 75 |
| CC1CC(CN2CCN3c4cc(-c5ccccc5O)nnc4NC[C@H]3C2)CCN1CC1CCN(c2ccc3c(c2)C(=O)N(C2CCC(=O)NC2=O)C3=O)CC1 (stereo partly drawn) [Example 162, 2-(2,6-dioxopiperidin-3-yl)-5-[4-[[4-[[(10S)-4-(2-hydroxyphenyl)-1,5,6,8,12-pentazatricyclo[8.4.0.02,7]tetradeca-2,4,6-trien-12-yl]methyl]-2-methylpiperidine-1-yl]methyl]piperidin-1-yl] isoindole-1,3-dione] | < 0.01 | > 85 | < 0.01 | > 85 |
| O=C1CCC(N2C(=O)c3ccc(N4CCC(CNC56CCC(C(=O)N7CCN8c9cc(-c%10ccccc%10O)nnc9NC[C@H]8C7)(CC5)CC6)CC4)cc3C2=O)C(=O)N1 (stereo partly drawn) [Example 81, 2-(2,6-dioxopiperidin-3-yl)-5-(4-(((4-((S)-2-(2-hydroxyphenyl)-6,6a,7,8,9,10-hexahydro-5H-pyrazino[1′,2′:4,5]pyrazino[2,3-c]pyridazine-8-carbonyl)bicyclo[2.2.2]octan-1-yl)amino)methyl)piperidin-1-yl)isoindoline-1dione] | < 0.01 | 75 to 85 | < 0.01 | 75 to 85 |
| O=C1CCC(N2Cc3cc(N4CCC(CNC56CCC(C(=O)N7CCN8c9cc(-c%10ccccc%10O)nnc9NC[C@H]8C7)(CC5)CC6)CC4)ccc3C2=O)C(=O)N1 (stereo partly drawn) [Example 84, 3-(5-(4-(((4-((S)-2-(2-hydroxyphenyl)-6,6a,7,8,9,10-hexahydro-5H-pyrazino[1 ′,2′:4,5]pyrazino[2,3-c]pyridazine-8-carbonyl)bicyclo[2.2.2]octan-1-yl)amino)methyl)piperidin-1-yl)-1-oxoisoindolin-2-yl)piperidine-2,6-dione] | < 0.01 | > 85 | < 0.01 | 75 to 85 |
| CN(CCCN1CCN2c3cc(-c4ccccc4O)nnc3NC[C@H]2C1)CC1CCN(c2ccc3c(c2)C(=O)N(C2CCC(=O)NC2=O)C3=O)CC1 (stereo partly drawn) [Example 40, 2-(2,6-dioxopiperidin-3-yl)-5-(4-(((3-((S)-2-(2-hydroxyphenyl)-5,6,6a,7,9,10-hexahydro-8H-pyrazino[1′,2′:4,5]pyrazino[2,3-c]pyridazin-8-yl)propyl)(methyl)amino)methyl)piperidin-1-yl)isoindoline-1,3-dione] | < 0.01 | 50 to 75 | < 0.01 | 50 to 75 |
| O=C1CCC(N2C(=O)c3ccc(OC4CCN(CC5CCN(CCN6CCN7c8cc(-c9ccccc9O)nnc8NC[C@H]7C6)CC5)CC4)cc3C2=O)C(=O)N1 (stereo partly drawn) [Example 216, 2-(2,6-dioxopiperidin-3-yl)-5-((1-((1-(2-((S)-2-(2-hydroxyphenyl)-5,6,6a,7,9,10-hexahydro-8H-pyrazino[1′,2′:4,5]pyrazino[2,3-c]pyridazin-8-yl)ethyl)piperidin-4-yl)methyl)piperidin-4-yl)oxy) isoindoline-N, 3-dione] | < 0.01 | > 85 | < 0.01 | 50 to 75 |
| CN(CCN1CCC(N2CCN3c4cc(-c5ccccc5O)nnc4NC[C@H]3C2)CC1)c1cccc2c1C(=O)N(C1CCC(=O)NC1=O)C2=O (stereo partly drawn) [Example 68, 2-(2,6-dioxopiperidin-3-yl)-4-((2-(4-((S)-2-(2-hydroxyphenyl)-5,6,6a,7,9,10-hexahydro-8H-pyrazino[1′,2′:4,5]pyrazino[2,3-c]pyridazin-8-yl)piperidin-1-yl)ethyl)(methyl)amino)isoindoline-1,3-dione] | < 0.01 | > 85 | 0.01 to 0.1 | > 85 |
| CN(C(=O)N1CCN2c3cc(-c4ccccc4O)nnc3NC[C@H]2C1)C1CCN(CC2CCN(c3ccc4c(c3)C(=O)N(C3CCC(=O)NC3=O)C4=O)CC2)CC1 (stereo partly drawn) [Example 138, (6aS)-N-(1-((1-(2-(2,6-dioxopiperidin-3-yl)-1,3-dioxoisoindolin-5-yl)piperidin-4-yl)methyl)piperidin-4-yl)-2-(2-hydroxyphenyl)-N-methyl-5,6,6a,7,9,10-hexahydro-8H-pyrazino[1′,2′:4,5]pyrazino[2,3-c]pyridazine-8-carboxamide] | < 0.01 | > 85 | < 0.01 | > 85 |
| O=C1CCC(N2C(=O)c3ccc(N4C[C@@H]5[C@@H](CN6CCC(CN7CCN8c9cc(-c%10ccccc%10O)nnc9NC[C@H]8C7)CC6)[C@@H]5C4)cc3C2=O)C(=O)N1 (stereo partly drawn) [Example 154, 2-(2,6-dioxopiperidin-3-yl)-5-((1R,5S,6s)-6-((4-(((S)-2-(2-hydroxyphenyl)-5,6,6a,7,9,10-hexahydro-8H-pyrazino[1′,2′:4,5]pyrazino[2,3-c]pyridazin-8-yl)methyl)piperidin-1-yl)methyl)-3-azabicyclo[3.1.0]hexan-3-yl)isoindoline-1,3-dione] | < 0.01 | 50 to 75 | < 0.01 | 50 to 75 |
| O=C1CCC(N2C(=O)c3ccc(NCCN4CCN(C(=O)N5CCN6c7cc(-c8ccccc8O)nnc7NC[C@H]6C5)CC4)cc3C2=O)C(=O)N1 (stereo partly drawn) [Example 219, 2-(2,6-dioxopiperidin-3-yl)-5-((2-(4-((S)-2-(2-hydroxyphenyl)-6,6a,7,8,9,10-hexahydro-511-pyrazino[1′,2′:4,5]pyrazino[2,3-c]pyridazine-8-carbonyl)piperazin-1-yl)ethyl)amino) isoindoline-1,3-dione] | < 0.01 | 50 to 75 | 0.01 to 0.1 | ≤ 50 |
| CCC1CN(CC2CCN(c3ccc4c(c3)C(=O)N(C3CCC(=O)NC3=O)C4=O)CC2)CCN1C(=O)N1CCN2c3cc(-c4ccccc4O)nnc3NC[C@H]2C1 (stereo partly drawn) [Example 269, 2-(2,6-dioxopiperidin-3-yl)-5-(4-((3-ethyl-4-((S)-2-(2-hydroxyphenyl)-6,6a,7,8,9,10-hexahydro-5H-pyrazino[1′,2′:4,5]pyrazino[2,3-c]pyridazine-8-carbonyl)piperazin-1-yl)methyl)piperidin-1-yl)isoindoline-1,3-dione] | < 0.01 | 75 to 85 | 0.01 to 0.1 | 50 to 75 |
